Data set [1] deals with Mammakarzinomzell-Linie MDA-MB 231. In words: In vitro toxicity (T/C in %) on breast carcinoma cell line. Type of data set: cell-based, menschlichen. The following applies: MDA-MB 231, qualitative or ranking. From the text: Die Toxizität (T/C in %) weiterer erstmals dargestellter α-Diimin-Komplexe der Nickel-Triade unterschiedlicher Strukturtypen wurde in vitro an der menschlichen Mammakarzinomzell-Linie MDA-MB 231 getestet.

Another data set deals with hypoxischen CHO-ZeIlen. In words: Radiosensitisation of hypoxic CHO cells (enhancement ratio ER). Type of data set: cell-based. The note with it: radiosensitising effect. From the text: Nickel-α-Diimin-Komplexe der Strukturtypen (α-Diimin)NiCl2 und [(α-Diimin)2Ni](ClO4)2 mit dem α-Diimin Antipy-PCD zeigen gegenüber isosteren Palladium- und Platin-Komplexen erhöhte radiosensibilisierende Wirkungen in hypoxischen CHO-ZeIlen; ER = 1,41 resp. 1,37. Für den unkoordinierten Antipy-PCD-Liganden, mit dem bekannten bioaktiven Molekülteil Phenazon, konnte nur ein sehr geringer strahlensensibilisierender Effekt (ER = 1,13) nachgewiesen werden. Die neutralen α-Diimin-Metall-Halogenid-Komplexe (a) der Nickel-Triade haben gegenüber analogen ionischen Perchlorat-Komplexen (b) eine deutlich höhere radiosensibilisierende Wirkung. Folgende Reihen entsprechender Komplexe - bezogen auf das Zentralmetall - mit abnehmenden o.g. sensibilisierenden Eigenschaften wurden ermittelt: für • (a) Ni > Pd > Pt • (b) Ni > Pt > Pd
Von den untersuchten neuen Platin-α-Diimin-Komplexen ist die fünffach koordinierte (Antipy-PCD)PtCl2(NH3)-Verbindung wegen ihres relativ hohen strahlensensibilisierenden Effektes (ER = 1,36) - verglichen mit ER-Literaturdaten für Platinkomplexe - bedeutsam. Eine entsprechende Sensibilisierung aerobischer CHO-ZeIlen durch die hier untersuchten Substanzen wurde in keinem Fall beobachtet.

A further data set can be described thus: in vitro. The note with it: hamster, cho cells.

As a reminder, the viability is a read-out of living cells in per cent, often relative to untreated cells.

For the compound `COc1cc([N+](=O)[O-])ccc1N=Cc1ccccn1` [2-MeO-4-NO2-Ph-PCD], the “Toxizität (T/C in %)” value in data set [1] was “merkliche Toxizität”.
As for `Cc1c(N=Cc2ccccn2)c(=O)n(-c2ccccc2)n1C` [Antipy-PCD, 2-Pyridinal-2,3-dihydro-1,5-dimethyl-3-oxo-2-phenyl-1H-pyrazol-4-ylimin], the ER in the data set on hypoxischen CHO-ZeIlen is on record as 1,13. The viability at 3 h, 300 µM in the data set “in vitro” is 36%.
“Bis(2-pyridinal-2,3-dihydro-1,5-dimethyl-3-oxo-2-phenyl-1H- pyrazol-4-ylimin)-nickel(II)perchlorat [[(α-Diimin)2Ni](ClO4)2]”: in the data set on hypoxischen CHO-ZeIlen, the ER is 1,37.
Same read-out and setting: as for “Dichloro-2-pyridinal-(2,3-dihydro-1,5-dimethyl-3-oxo-2-phenyl-1H-pyrazol-4-ylimin)ammin-platin(II) [(Antipy-PCD)PtCl2(NH3)]”, the figure is 1,36.

Values taken from patent EP1537869A2, “Radiosensibilizer and preparation thereof” (Christian-Albrechts-Universität zu Kiel, priority 2003, dated 2005).
